Data on eleven compounds can be found in ChEMBL document CHEMBL5126517, “Structure-Activity Relationship in the Leucettine Family of Kinase Inhibitors” (J Med Chem, 2022).

For data set [1], the target named is Glycogen synthase kinase-3 (Sus scrofa, UniProt B2LUN4+I6LNT8). The data set can be described thus: Inhibition of porcine brain GSK-3alpha/beta using YRRAAVPPSPSLSRHSSPHQpSEDEEE as substrate incubated for 30 mins in presence of ATP by scintillation counting method. The data set is classed as tissue-based.
The target of data set [2] is Dual specificity protein kinase CLK4 (Mus musculus, UniProt O35493). In words: Inhibition of GST-fused mouse recombinant CLK4 expressed in Escherichia coli using GRSRSRSRSRSR peptide as substrate incubated for 30 mins in presence of ATP by scintillation counting method.
Data set [3] has as its target Dual specificity protein kinase CLK3 (Mus musculus, UniProt O35492). The data set can be described thus: Inhibition of GST-fused mouse recombinant CLK3 expressed in Escherichia coli using GRSRSRSRSRSR peptide as substrate incubated for 30 mins in presence of ATP by scintillation counting method.
For data set [4], the target named is Dual specificity protein kinase CLK1 (Mus musculus, UniProt P22518). In words: Inhibition of GST-fused mouse recombinant CLK1 expressed in Escherichia coli using GRSRSRSRSRSR peptide as substrate incubated for 30 mins in presence of ATP by scintillation counting method.
For data set [5], the target named is Dual specificity protein kinase CLK2 (Mus musculus, UniProt O35491). In words: Inhibition of mouse recombinant GST-fused CLK2 expressed in Escherichia coli using GRSRSRSRSRSR peptide as substrate incubated for 30 mins in presence of ATP by scintillation counting method.
The target in data set [6] is Dual specificity tyrosine-phosphorylation-regulated kinase 1A (Homo sapiens, UniProt Q13627). In words: Inhibition of GST-fused human recombinant DYRK1A expressed in Escherichia coli using GRSRSRSRSRSR peptide as substrate incubated for 30 mins in presence of ATP by scintillation counting method.
The target of data set [7] is Dual specificity tyrosine-phosphorylation-regulated kinase 1B (Homo sapiens, UniProt Q9Y463).
In data set [8] the target is T1, Dual specificity tyrosine-phosphorylation-regulated kinase 2 (Homo sapiens, UniProt Q92630).
T1 sequence (Q92630 whole entry): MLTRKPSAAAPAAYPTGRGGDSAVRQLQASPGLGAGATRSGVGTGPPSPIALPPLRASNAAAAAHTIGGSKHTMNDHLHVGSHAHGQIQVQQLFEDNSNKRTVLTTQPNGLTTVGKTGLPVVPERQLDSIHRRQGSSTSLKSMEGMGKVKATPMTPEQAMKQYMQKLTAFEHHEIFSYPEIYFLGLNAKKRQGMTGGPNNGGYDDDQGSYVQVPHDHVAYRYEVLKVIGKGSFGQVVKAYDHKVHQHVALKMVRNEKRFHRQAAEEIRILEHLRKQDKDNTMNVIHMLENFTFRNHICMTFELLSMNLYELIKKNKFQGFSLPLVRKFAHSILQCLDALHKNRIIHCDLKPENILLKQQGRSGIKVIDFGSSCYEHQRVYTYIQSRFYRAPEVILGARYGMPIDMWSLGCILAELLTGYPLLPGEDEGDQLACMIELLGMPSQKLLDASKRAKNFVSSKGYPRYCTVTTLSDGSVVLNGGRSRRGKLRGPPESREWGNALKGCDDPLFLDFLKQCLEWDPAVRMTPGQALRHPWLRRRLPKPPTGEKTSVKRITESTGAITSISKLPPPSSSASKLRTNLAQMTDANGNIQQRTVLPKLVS
The data set can be described thus: Inhibition of GST-fused human recombinant DYRK2 expressed in Escherichia coli using GRSRSRSRSRSR peptide as substrate incubated for 30 mins in presence of ATP by scintillation counting method.

In data set [9] the target is T2, Dual specificity tyrosine-phosphorylation-regulated kinase 3 (Homo sapiens, UniProt O43781).
T2 sequence (O43781 whole entry): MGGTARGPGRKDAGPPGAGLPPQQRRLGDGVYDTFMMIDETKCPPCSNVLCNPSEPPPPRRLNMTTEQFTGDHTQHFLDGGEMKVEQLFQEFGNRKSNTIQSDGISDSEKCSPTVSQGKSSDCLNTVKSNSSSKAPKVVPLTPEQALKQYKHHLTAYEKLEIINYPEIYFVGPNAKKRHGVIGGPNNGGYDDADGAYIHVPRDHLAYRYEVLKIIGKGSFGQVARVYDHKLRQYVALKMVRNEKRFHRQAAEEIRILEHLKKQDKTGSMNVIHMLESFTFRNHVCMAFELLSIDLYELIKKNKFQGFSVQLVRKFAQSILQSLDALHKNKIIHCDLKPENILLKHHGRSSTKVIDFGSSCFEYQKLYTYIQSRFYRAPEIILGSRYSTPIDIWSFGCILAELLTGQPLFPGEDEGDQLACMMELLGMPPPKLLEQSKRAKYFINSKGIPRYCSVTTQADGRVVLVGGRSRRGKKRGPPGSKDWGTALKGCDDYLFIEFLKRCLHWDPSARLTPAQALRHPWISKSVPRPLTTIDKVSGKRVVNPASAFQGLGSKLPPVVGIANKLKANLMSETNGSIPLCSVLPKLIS
The data set can be described thus: Inhibition of GST-fused human recombinant DYRK3 expressed in Escherichia coli using GRSRSRSRSRSR peptide as substrate incubated for 30 mins in presence of ATP by scintillation counting method.

The target in data set [10] is Serine/threonine-protein kinase pim-1 (Homo sapiens, UniProt P11309). The data set can be described thus: Inhibition of human recombinant Pim1 expressed in Escherichia coli using histone H1 as substrate incubated for 30 mins in presence of ATP by scintillation counting method.
The next data set concerns HT-22. In words: Neuroprotective activity against glutamate-induced cell death in mouse HT-22 cells treated for 24 hrs by MTS assay. The data set is classed as functional, cell-based. The conditions noted are these: HT-22, 24 h.
Another data set has as its system U2OS. The data set can be described thus: Induction of PI3K/mTor-dependent autophagy in human U2OS cells assessed as number of LC3 foci per cell at 10 uM measured after 4 hrs. The settings on record: filed as activator. The data set is classed as cell-based.
Another data set deals with Cannabinoid receptor 1 (Homo sapiens, UniProt P21554). In words: Antagonist activity at CP-55940-activated CB1 receptor (unknown origin) at 10 uM by beta-arrestin assay relative to control. The data set is classed as functional. Further details: scale not given: the % may be the effect or the level left.
Data set [11] is described as follows: Neurotoxicity against mouse HT-22 cells assessed as cell survival at 20 uM treated for 24 hrs by MTS assay. The data set is classed as toxicity, cell-based. The settings on record: ht-22, 24 h.
Another data set addresses Casein kinase 2 (Homo sapiens, UniProt P67870+P68400+P19784+Q8NEV1). In words: Inhibition of human recombinant CK2 using RRRDDDSDDD peptide as substrate incubated for 30 mins in presence of ATP by scintillation counting method. The data set is classed as protein assay.

Each structure is given as a SMILES string.

Sequence of Dual specificity tyrosine-phosphorylation-regulated kinase 1B (Q9Y463 whole entry): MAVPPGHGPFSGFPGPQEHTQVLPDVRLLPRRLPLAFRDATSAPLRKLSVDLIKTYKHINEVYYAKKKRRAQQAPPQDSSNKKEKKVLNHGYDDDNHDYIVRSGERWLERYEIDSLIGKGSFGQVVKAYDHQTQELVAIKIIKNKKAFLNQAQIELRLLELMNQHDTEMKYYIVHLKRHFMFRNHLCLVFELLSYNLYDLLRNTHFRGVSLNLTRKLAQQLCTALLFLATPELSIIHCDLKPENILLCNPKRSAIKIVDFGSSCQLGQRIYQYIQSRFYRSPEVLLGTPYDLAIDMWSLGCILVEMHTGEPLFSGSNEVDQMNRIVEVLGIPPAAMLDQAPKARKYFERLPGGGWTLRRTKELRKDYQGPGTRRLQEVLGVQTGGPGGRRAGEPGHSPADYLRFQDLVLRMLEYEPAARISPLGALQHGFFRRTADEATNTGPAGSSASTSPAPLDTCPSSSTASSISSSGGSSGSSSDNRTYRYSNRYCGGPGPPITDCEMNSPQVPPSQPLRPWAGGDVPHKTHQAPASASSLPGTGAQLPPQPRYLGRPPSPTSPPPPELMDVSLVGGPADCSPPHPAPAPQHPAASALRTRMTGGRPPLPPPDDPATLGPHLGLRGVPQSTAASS
Sequence of Cannabinoid receptor 1 (P21554 whole entry): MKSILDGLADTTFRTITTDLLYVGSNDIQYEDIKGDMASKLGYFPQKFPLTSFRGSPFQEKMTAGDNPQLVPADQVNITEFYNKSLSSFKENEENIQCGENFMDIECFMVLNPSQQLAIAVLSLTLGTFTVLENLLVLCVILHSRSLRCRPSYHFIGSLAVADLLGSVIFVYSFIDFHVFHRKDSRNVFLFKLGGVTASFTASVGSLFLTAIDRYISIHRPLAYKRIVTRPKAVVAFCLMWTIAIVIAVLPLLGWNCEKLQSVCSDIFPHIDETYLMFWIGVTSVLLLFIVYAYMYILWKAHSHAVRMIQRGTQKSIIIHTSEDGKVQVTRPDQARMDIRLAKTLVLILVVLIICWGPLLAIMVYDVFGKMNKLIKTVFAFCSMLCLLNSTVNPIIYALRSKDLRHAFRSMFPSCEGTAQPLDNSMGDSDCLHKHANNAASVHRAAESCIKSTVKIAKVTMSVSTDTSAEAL
Sequence of Dual specificity protein kinase CLK2 (O35491 whole entry, the tested form may be a part): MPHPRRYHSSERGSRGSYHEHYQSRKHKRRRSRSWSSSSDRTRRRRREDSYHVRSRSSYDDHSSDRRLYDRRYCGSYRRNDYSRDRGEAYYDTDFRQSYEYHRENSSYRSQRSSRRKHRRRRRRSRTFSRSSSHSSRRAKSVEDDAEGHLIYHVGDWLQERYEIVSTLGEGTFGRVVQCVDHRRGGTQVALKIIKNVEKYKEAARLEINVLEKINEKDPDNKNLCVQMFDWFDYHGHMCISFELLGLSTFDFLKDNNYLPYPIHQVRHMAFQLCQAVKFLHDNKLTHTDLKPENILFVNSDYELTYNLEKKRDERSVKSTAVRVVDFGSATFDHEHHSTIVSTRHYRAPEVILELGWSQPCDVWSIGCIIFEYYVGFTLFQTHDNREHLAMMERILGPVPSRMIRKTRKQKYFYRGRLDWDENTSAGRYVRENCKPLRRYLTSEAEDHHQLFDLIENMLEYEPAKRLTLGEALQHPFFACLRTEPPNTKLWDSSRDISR
Sequence of Dual specificity protein kinase CLK1 (P22518 whole entry, the tested form may be a part): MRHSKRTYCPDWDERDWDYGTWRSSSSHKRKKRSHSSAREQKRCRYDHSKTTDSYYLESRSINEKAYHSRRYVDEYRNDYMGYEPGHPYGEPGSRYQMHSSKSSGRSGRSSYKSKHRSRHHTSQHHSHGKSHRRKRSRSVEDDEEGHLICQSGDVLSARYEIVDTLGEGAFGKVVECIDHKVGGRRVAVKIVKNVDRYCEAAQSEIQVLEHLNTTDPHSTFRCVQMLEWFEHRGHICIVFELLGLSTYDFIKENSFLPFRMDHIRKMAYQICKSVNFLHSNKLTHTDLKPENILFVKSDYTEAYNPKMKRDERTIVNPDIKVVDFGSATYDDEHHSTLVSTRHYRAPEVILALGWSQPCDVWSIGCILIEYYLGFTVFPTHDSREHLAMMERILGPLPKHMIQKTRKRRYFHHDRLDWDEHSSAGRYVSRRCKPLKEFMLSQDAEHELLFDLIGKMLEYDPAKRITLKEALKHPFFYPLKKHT
Sequence of Dual specificity protein kinase CLK3 (O35492 whole entry, the tested form may be a part): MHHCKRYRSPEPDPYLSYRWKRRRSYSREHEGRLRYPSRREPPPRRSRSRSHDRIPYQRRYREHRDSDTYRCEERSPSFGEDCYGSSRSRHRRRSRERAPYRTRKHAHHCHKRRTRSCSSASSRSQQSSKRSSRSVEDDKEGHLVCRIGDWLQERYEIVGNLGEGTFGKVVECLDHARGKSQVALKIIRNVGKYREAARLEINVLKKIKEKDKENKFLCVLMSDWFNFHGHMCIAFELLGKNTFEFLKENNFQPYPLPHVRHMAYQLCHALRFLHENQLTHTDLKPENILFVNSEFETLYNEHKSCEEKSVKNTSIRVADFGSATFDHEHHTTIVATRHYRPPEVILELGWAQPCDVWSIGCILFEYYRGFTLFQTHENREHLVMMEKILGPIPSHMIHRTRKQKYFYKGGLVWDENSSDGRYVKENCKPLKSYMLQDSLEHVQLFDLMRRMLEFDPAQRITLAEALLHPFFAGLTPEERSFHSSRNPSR
Sequence of Dual specificity protein kinase CLK4 (O35493 whole entry, the tested form may be a part): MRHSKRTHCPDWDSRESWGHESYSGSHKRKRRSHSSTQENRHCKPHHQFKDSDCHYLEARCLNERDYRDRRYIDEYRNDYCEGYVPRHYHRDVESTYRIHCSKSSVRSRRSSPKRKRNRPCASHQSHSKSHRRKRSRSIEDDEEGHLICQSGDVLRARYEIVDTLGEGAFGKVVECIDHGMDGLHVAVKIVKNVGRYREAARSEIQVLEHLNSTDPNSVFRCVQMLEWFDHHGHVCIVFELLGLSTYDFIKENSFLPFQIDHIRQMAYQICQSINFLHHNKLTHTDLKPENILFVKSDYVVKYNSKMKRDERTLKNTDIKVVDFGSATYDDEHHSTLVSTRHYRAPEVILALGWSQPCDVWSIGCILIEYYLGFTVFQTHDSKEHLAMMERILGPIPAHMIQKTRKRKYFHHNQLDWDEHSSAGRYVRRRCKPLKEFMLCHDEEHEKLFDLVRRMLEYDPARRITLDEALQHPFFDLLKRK
Sequence of Serine/threonine-protein kinase pim-1 (P11309 whole entry): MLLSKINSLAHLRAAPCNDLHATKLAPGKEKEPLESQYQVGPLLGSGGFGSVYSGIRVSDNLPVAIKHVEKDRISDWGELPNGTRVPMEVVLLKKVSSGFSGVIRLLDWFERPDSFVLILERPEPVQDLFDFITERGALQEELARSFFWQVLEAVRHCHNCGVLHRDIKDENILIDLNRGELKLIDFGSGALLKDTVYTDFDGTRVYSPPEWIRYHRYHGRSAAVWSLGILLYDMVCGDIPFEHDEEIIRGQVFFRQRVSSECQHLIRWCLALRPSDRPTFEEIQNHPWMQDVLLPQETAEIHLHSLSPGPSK

For the compound `COc1cc(/C=C2\N=C(Nc3ccc(N4CCNCC4)cc3)NC2=O)ccc1O`, the IC50 is 6500 nM in data set [1]; 1200 nM in data set [2]; > 10000 nM in [3]; 1200 nM in data set [4]; 3500 nM in data set [5]; 1300 nM in [6]. Further, the IC50 in data set [7] is 2200 nM; in [8], 2100 nM; in data set [9] it was 1500 nM; in data set [10] it was > 10000 nM. In the data set on HT-22, the EC50 stood at 7000 nM. Besides, the Activity is 6.3 with U2OS, -26.8% at Cannabinoid receptor 1 and “Non-Toxic” in [11].

On to `O=C1NC(Nc2ccc(O)c(F)c2)=N/C1=C\c1ccc2c(c1)OCO2`, for which the IC50 is 550 nM in data set [1]; 19 nM in [2]; 400 nM in [3]; 16 nM in data set [4]; 120 nM in data set [5]; 12 nM in data set [6]. The IC50 stood at 23 nM in data set [7]; 11 nM in data set [8]; 170 nM in data set [9]; 610 nM in [10]; 320 nM at Casein kinase 2. Besides, in the data set on HT-22, the midpoint of the response, the EC50, lay at 13000 nM. For the same compound, the Activity with U2OS is 18.2; at Cannabinoid receptor 1, -5.6%; in data set [11], “Non-Toxic”.

Take `O=C1NC(Nc2ccccc2)=N/C1=C\c1ccc(O)c(O)c1`: the half-inhibitory concentration (IC50) in data set [1] was 1200 nM; in data set [2] it was 130 nM; in data set [3], 2300 nM; in data set [4], 210 nM; in [5], 1500 nM; in [6], 150 nM. Moreover, the IC50 is 320 nM in data set [7]; 270 nM in data set [8]; 1200 nM in [9]; 840 nM in data set [10]; 1500 nM at Casein kinase 2. Also, the EC50 in the data set on HT-22 was 3300 nM. In addition, the Activity in the data set on U2OS was 10.1; on Cannabinoid receptor 1 it was -22.3%; in data set [11], “Non-Toxic”.

With `CCCCCOc1ccc(NC2=N/C(=C\c3ccc4c(c3)OCO4)C(=O)N2)cc1`, the IC50 in data set [1] was > 10000 nM; in data set [2], 620 nM; in [3] it was > 10000 nM; in data set [4], 850 nM; in [5] it was 3100 nM; in data set [6] it was 710 nM. Besides, the half-inhibitory concentration (IC50) in data set [7] was 2300 nM; in data set [8] it was 510 nM; in data set [9] it was 7000 nM; in data set [10], ≥ 10000 nM; on Casein kinase 2, 1300 nM. Besides, in the data set on HT-22, the EC50 amounted to 1140 nM. Moreover, the Activity in the data set on U2OS was 7; at Cannabinoid receptor 1, 37.4%; in [11], “Non-Toxic”.

As to `O=C1NC(Nc2ccccc2)=N/C1=C\c1ccc2c(c1)CCO2`, the IC50 was > 10000 nM in [1]; 19 nM in data set [2]; 1200 nM in data set [3]; 22 nM in [4]; 120 nM in data set [5]; 32 nM in [6]. For the same compound, the IC50 in data set [7] was found to be 88 nM; in [8], 41 nM; in data set [9], 240 nM; in [10], 3200 nM; on Casein kinase 2 it was 1100 nM. Moreover, it took 7000 nM to reach a half-maximal effect in the data set with HT-22 (EC50). The Activity is 10.2 with U2OS, 96.4% on Cannabinoid receptor 1 (filed as antagonist) and “Non-Toxic” in data set [11].

`COc1ccc(/C=C2\N=C(Nc3ccccc3)NC2=O)cc1O`: the IC50 in data set [2] was 4000 nM; in data set [4], 4300 nM; in data set [5], ≥ 10000 nM; in data set [6] it was 2000 nM; in data set [7] it was 2800 nM; in [8], 2100 nM. Besides, the IC50 was 2400 nM in [9], 1900 nM in data set [10] and > 10000 nM on Casein kinase 2. For the same compound, the EC50 in the data set with HT-22 is 5570 nM. For the same compound, the Activity in the data set on U2OS is 6.5; at Cannabinoid receptor 1 (filed as antagonist), 46.8%; in data set [11] it was “Non-Toxic”.

Take `O=C1NC(Nc2ccc(Oc3ccccc3)cc2)=N/C1=C\c1ccc2c(c1)OCO2`: the IC50 was > 10000 nM in data set [1]; 760 nM in data set [2]; 1800 nM in data set [4]; > 10000 nM in data set [5]; 920 nM in data set [6]; 4000 nM in [7]. The IC50 in data set [8] is 1100 nM. This compound also gave an EC50 in the data set with HT-22 of 2400 nM. For the same compound, the Activity in the data set on U2OS was 4.6; at Cannabinoid receptor 1 (filed as antagonist) it was 73.5%; in [11] it was “Non-Toxic”.

With `[2H]C1([2H])Oc2ccc(/C=C3\N=C(Nc4ccccc4)NC3=O)cc2O1`, the IC50 in data set [1] turned out to be 750 nM; in [3] it was 500 nM; in [4] it was 40 nM; in [5] it was 170 nM; on Casein kinase 2 it was 1600 nM. The compound also yielded an EC50 in the data set with HT-22 of 4900 nM. The Activity entry in [11] is listed as “Non-Toxic”.

Compound `O=C1NC(Nc2ccccc2)=N/C1=C\c1ccccc1` had an EC50 in the data set with HT-22 of 7200 nM. Further, the Activity is 7.7 with U2OS, 44.6% at Cannabinoid receptor 1 (filed as antagonist) and “Non-Toxic” in data set [11].

In the case of `O=C1NC(Nc2ccccc2)=N/C1=C\c1ccc(F)cc1`, the IC50 is 2800 nM in data set [2]; > 10000 nM in data set [3]; 3200 nM in data set [4]; > 10000 nM in data set [5]; 9500 nM in data set [6]; > 10000 nM in data set [7]. Moreover, the figures for the IC50 (in data set [10]; at Casein kinase 2) were > 10000 nM and 3200 nM, respectively. The same compound had an EC50 in the data set on HT-22 of 2850 nM. Besides, the Activity is 20.2 with U2OS, 78% on Cannabinoid receptor 1 (filed as antagonist) and “Non-Toxic” in [11].

With `CCCCCCc1ccc(NC2=N/C(=C\c3ccc4c(c3)OCO4)C(=O)N2)cc1`, the IC50 in [2] was 4100 nM; in [4], > 10000 nM; in data set [6], > 10000 nM; in data set [7], > 10000 nM; in data set [8], 9500 nM. The EC50 in the data set with HT-22 was determined as 1190 nM. Moreover, the Activity was 6.5 in the data set on U2OS, 75% on Cannabinoid receptor 1 (filed as antagonist) and “Non-Toxic” in data set [11].
